Test results: patent publication US12378193B2, “Anti-arrhythmicity agents” (The Regents of the University of California, priority 2014, dated 2025)

Legend:
[1] = test system: murine ventricular cardiomyocytes; experiment: Ca2+ imaging (transients, sparks, waves) in isolated cardiomyocytes; type: cell-based
Description: Murine ventricular cardiomyocytes were isolated as previously described (Reuter et al., 2004, J Physiol 554, 779-789). Cells were loaded with 5 μM fluo-4 AM in external solution containing: 138.2 mM NaCl, 4.6 mM KCl, 1.2 mM MgCl, 15 mM glucose, 20 mM HEPES for 1 hr and imaged in external solution supplemented with 2, 5 or 10 mM CaCl2). For the recording of Ca^2+ sparks and transients, the external solution contained 2 mM CaCl2. For Ca^2+ transients, cells were field stimulated at 0.5 Hz with a 5 ms pulse at a voltage of 20% above contraction threshold. For all measurements, efsevin was added 2 hours prior to the actual experiment. Images were recorded on a Zeiss LSM 5 Pascal confocal microscope. Data analysis was carried out using the Zeiss LSM Image Browser and ImageJ with the SparkMaster plugin (Picht et al., 2007, Am J Physiol Cell Physiol 293, C1073-1081). Cells were visually inspected prior to and after each recording. Only those recordings from healthy looking cells with distinct borders, uniform striations and no membrane blebs or granularity were included in the analysis.

[2] = test system: NCX1hMO injected embryos; experiment: Restoration of coordinated cardiac contractions in NCX1h morpholino embryos; type: in vivo, zebrafish; conditions: for embryos with coordinated contractions: VDAC2^zfn/zfn
Description: (§1) VDAC2 mRNA and morpholino antisense oligos (5′-[…]-3′) (Genetools) (SEQ ID NO: 9) were injected into one-cell stage embryos collected from crosses of tre^tc318 heterozygotes. Cardiac performance was analyzed by visual inspection on 1 dpf. The tre mutant embryos were identified either by observing the fibrillation phenotype at 2-3 dpf or by genotyping as previously described (Langenbacher et al., 2005).
(§2) Chemicals from a synthetic library (Castellano et al., 2007, J Am Chem Soc 129, 5843-5845; Choi et al., 2011, Development 138, 1173-1181; Cruz et al., 2011, Proc Natl Acad Sci USA 108, 6769-6774) and from Biomol International LP were screened for their ability to partially or completely restore persistent heartbeat in tre embryos. 12 embryos collected from crosses of tre^tc318 heterozygotes were raised in the presence of individual compounds at a concentration of 10 μM from 4 hpf (Choi et al., 2011). Cardiac function was analyzed by visual inspection at 1 and 2 dpf. The hearts of tre^tc318 embryos manifest a chaotic movement resembling cardiac fibrillation with intermittent contractions in rare occasion (Ebert et al., 2005; Langenbacher et al., 2005). Compounds that elicit persistent coordinated cardiac contractions were validated on large number of tre mutant embryos and NCX1h morphants (>500 embryos).

[3] = test system: zebrafish tremblor (tre) embryos; experiment: Restoration of coordinated cardiac contractions in tre embryos; type: in vivo
Description: as §1, §2

[4] = test system: V1/V3 DKO MEFs; experiment: Mitochondria Ca2+ uptake assay in VDAC1/VDAC3 double knockout MEFs; type: cell-based
Description: V1/V3 DKO MEFs were cultured as previously described (Roy et al., 2009a, EMBO Rep 10, 1341-1347). Efsevin-treated (15 μM for 30 min) or mock-treated MEFs were used for measurements of [Ca^2+]c in suspensions of permeabilized cells or imaging of [Ca^2+]m simultaneously with [Ca^2+]c in intact single cells. Permeabilization of the plasma membrane was performed by digitonin ([…]). Changes in [Ca^2+] in the cytoplasmic buffer upon IP3 (7.5 μM) addition in the presence or absence of ruthenium red (3 μM) was measured by fura2 in a fluorometer (Csordas et al., 2006, J Cell Biol 174, 915-921; Roy et al., 2009b, Mol Cell 33, 377-388). To avoid endoplasmic reticulum Ca^2+ uptake 2 μM thapsigargin was added before IP3. For imaging of [Ca^2+]m and [Ca^2+]c, MEFs were co-transfected with plasmids encoding polycistronic zebrafish VDAC2 with mCherry and mitochondria-targeted inverse pericam for 40 hours. Cells were sorted to enrich the transfected cells and attached to glass coverslips. In the final 10 min, of the efsevin or mock-treatment, the cells were also loaded with fura2AM (2.5μ[…]) and subsequently transferred to the microscope stage. Stimulation with 1 μM ATP was carried out in a norminally Ca^2+ free buffer. […]

[5] = test system: HeLa cells; experiment: Mitochondria Ca2+ uptake assay in HeLa cells; type: cell-based; conditions: permeabilized cells, 1 μM efsevin, Rhod2
Description: HeLa cells were transfected with zebrafish VDAC2 using Lipofectamine™ 2000 (Invitrogen). 36 hrs after transfection, cells were loaded with 5 μM Rhod2-AM (Invitrogen), a Ca^2+ indicator preferentially localized in mitochondria, for 1 hour at 15° C. followed by a 30 min de-esterification period at 37° C. Subsequently, cells were permeabilized with 100 μM digitonin for 1 min at room temperature. Fluorescence changes in Rhod2 (ex: 544 nm, em: 590 nm) immediately after the addition of Ca^2+ (final free Ca^2+ concentration is calculated to be approximately 10 μM using WEBMAXC at http://web.stanford.edu/˜cpatton/webmaxcS.htm) were monitored in internal buffer (5 mM K-EGTA, 20 mM HEPES, 100 mM K-aspartate, 40 mM KCl, 1 mM MgCl2, 2 mM maleic acid, 2 mM glutamic acid, 5 mM pyruvic acid, 0.5 mM KH2PO4, 5 mM MgATP, pH adjusted to 7.2 with Trizma base) using a FLUOSTAR plate reader (BMG Labtech).

[6] = test system: wild type zebrafish embryos; experiment: Cardiac performance (line-scan fractional shortening, heart rate) of wild type embryos; type: in vivo
Description: Movies of GFP-labelled myl7:GFP hearts were taken at 30 frames per second. Line-scan analysis was performed along a line through the atria or the ventricles of these hearts (Nguyen et al., 2009, Drug Discovery Today: Disease Models 5). Fraction of shortening was deduced from the ratio of diastolic and systolic width and heart rate was determined by beats per minute. Cardiac parameters were analyzed in tremblor^tc318 and VDAC2^LA2256 at 2 dpf.

[7] = paced at 0.5 Hz, % of vehicle-treated
[8] = efsevin treatment, NCX1MO embryos

Q: What does the source list for `CCOC(=O)C1=CCN(S(=O)(=O)c2ccc(C)cc2)C1c1ccccc1` (stereo not shown) [efsevin]?
A: spontaneous Ca2+ waves spanning more than half of the entire cell ([1]; 1 μM efsevin): approximately half; spontaneous Ca2+ waves spanning more than half of the entire cell ([1]; 10 μM efsevin): further reduced; spontaneous Ca2+ waves spanning more than half of the entire cell ([1]; 25 μM efsevin): almost entirely blocked; decay phase of the single spark ([1]; % of vehicle-treated): 82.5±2.1%; maximum spark amplitude ([1]; % of vehicle-treated): 101.6±2.5%; total duration of the spark ([1]; % of vehicle-treated): 85.7±2%; total width of the spark ([1]; % of vehicle-treated): 89.5±1.4%; Ca2+ spark frequency ([1]; efsevin compared to vehicle-treated): 101.1±7.7%; Ca2+ transient rate of decay [1, 7]: 82.8±4%; Ca2+ transient time to peak [1, 7]: 95±3.9%; Ca2+ transient amplitude ([1]; paced at 0.5 Hz, efsevin-treated as % of vehicle-treated): 98.6±4.5%; Ca2+ release flux ([1]; sparks, % of vehicle-treated): 98.7±2.8%; embryos with coordinated cardiac contractions [2, 8]: 76.2±8.7%; embryos with coordinated contractions [2, 8]: 54.1±3.6%; embryos with coordinated contractions ([2]; efsevin treatment, VDAC1MO, NCX1MO embryos): 35.7±7.1%; restoration of rhythmic contractions in NCX1hMO injected embryos ([2]; linker-attached compounds): retained their ability to restore rhythmic contractions; embryos with coordinated cardiac contractions ([3]; efsevin treated tre embryos): 71.2±8.8%; embryos with coordinated contractions ([3]; efsevin treated tre embryos, VDAC1/2 knocked down simultaneously): 30.3±6.3%; embryos with coordinated contractions ([3]; efsevin treated tre embryos, morpholino knockdown of VDAC1 (MO^VDAC1)): 46.9±10.7%; embryos with coordinated contractions ([3]; efsevin treated tre embryos, morpholino knockdown of VDAC2 (MO^VDAC2)): 45.3±7.4%; restoration of rhythmic contractions in tremblor embryos ([3]; tremblor embryos): restored rhythmic contractions in the majority of tremblor embryos; transfer of Ca2+ released from intracellular stores into mitochondria ([4]; intact V1/V3 DKO MEFs, stimulation with ATP): accelerated the transfer of Ca^2+; Ca2+ transferred into mitochondria during IP3-induced Ca2+ release ([4]; permeabilized V1/V3DKO MEFs, efsevin 15 μM for 30 min, 7.5 μM IP3): increased the amount of Ca^2+ transferred into mitochondria; mitochondrial Ca2+ uptake after addition of Ca2+ [5]: increased mitochondrial Ca^2+ uptake; cardiac performance of wild-type embryos ([6]; efsevin-treated wild-type embryo, 2 dpf): did not affect cardiac performance; heart rate ([6]; efsevin-treated wild-type embryos): 123±3 bpm; Atrial FS ([6]; wild type + efsevin, 48 hpf): 35±2%; Ventricular FS ([6]; wild type + efsevin, 48 hpf): 39±1%
